How the values were obtained:
HCT-116 = assay: Cytotoxicity against human HCT116 cells after 72 hrs; format: cell-based; conditions: HCT-116, 72 h
Candida albicans [1] = assay: Antifungal activity against wild type-Candida albicans ATCC 32354 after 14 to 16 hrs; format: functional
Candida albicans [2] = assay: Antifungal activity against amphotericin-B-resistant Candida albicans ATCC 90873 after 14 to 16 hrs; format: functional

SMILES | IC50 (HCT-116) | MIC (Candida albicans [1]) | MIC (Candida albicans [2])
CC(C)CCC[C@@H](C)[C@H]1CC[C@@H]2[C@]1(C)CC[C@H]1[C@@]23C[C@@H](O)[C@@]2(O)C[C@@H](OS(=O)(=O)[O-])CC[C@]12CO3.[Na+] [EURYSTEROL A] | 2.9 mg/L | 15.6 mg/L | 15.6 mg/L
CC(C)C/C=C/[C@@H](C)[C@H]1CC[C@@H]2[C@]1(C)CC[C@H]1[C@@]23C[C@@H](O)[C@@]2(O)C[C@@H](OS(=O)(=O)[O-])CC[C@]12CO3.[Na+] [EURYSTEROL B] | 14.3 mg/L | 62.5 mg/L | 62.5 mg/L

Source: ChEMBL document CHEMBL1147122, “Eurysterols A and B, cytotoxic and antifungal steroidal sulfates from a marine sponge of the genus Euryspongia” (J Nat Prod, 2007)
